Measurements taken from the supplement of paper PMC11061612.

Assays:
[1] = system: SW48 (Colorectal Carcinoma); test: Bliss excess, mean over the matrix (fraction); higher = more synergy
In short: (§1)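 Cell lines in DMEM/F12 or RPMI with 10% FBS were plated in 1536-well plates, held 24 hours at 37°C, 5% CO2, then given two-drug dose matrices for 72 hours (DMSO typically 0.2%). Viability was read by CellTiter-Glo 2.0 luminescence and scaled as inhibition from 0 (vehicle wells) to 1 (blank wells). Combination Emax is the second-highest inhibition in the matrix; Bliss excess is observed combination effect minus expected EA + EB − EA·EB, EA and EB being single-agent effects.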

[2] = system: SNU-61 (Colorectal Carcinoma); test: as above
In short: as §1

D-392MG (Glioblastoma) = test: as above
In short: as §1

[3] = system: SK-UT-1 (Other Solid Carcinomas); test: as above
In short: as §1

[4] = system: HLE (Hepatocellular Carcinoma); test: as above
In short: as §1

[5] = system: SLVL (B-Cell Non-Hodgkin's Lymphoma); test: as above
In short: as §1

HCC38 (Breast Carcinoma) = test: combination Emax (second highest fraction inhibited in the dose matrix, 72 h); higher = more inhibition; extreme values may be limits of the assay
In short: as §1

HuO9 (Osteosarcoma) = test: as above
In short: as §1

[6] = system: PA-TU-8902 (Pancreatic Carcinoma); test: as above
In short: as §1

[7] = system: JHH-6 (Hepatocellular Carcinoma); test: as above
In short: as §1

A172 (Glioblastoma) = test: as above
In short: as §1

[8] = system: MEG-01 (Chronic Myelogenous Leukemia); test: as above
In short: as §1

SK-MEL-1 (Melanoma) = test: as above
In short: as §1

[9] = system: HLE (Hepatocellular Carcinoma); test: as above
In short: as §1

MSTO-211H (Mesothelioma) = test: as above
In short: as §1

[10] = system: SLVL (B-Cell Non-Hodgkin's Lymphoma); test: as above
In short: as §1

[11] = system: MES-SA (Other Solid Carcinomas); test: as above
In short: as §1

[12] = system: HCT-116 (Colorectal Carcinoma); test: as above
In short: as §1

[13] = system: BICR78 (Oral Cavity Carcinoma); test: as above
In short: as §1

[14] = system: NOMO-1 (Acute Myeloid Leukemia); test: as above
In short: as §1
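Wherever Bliss excess, mean over the matrix is given: after 72 h of two-drug dosing.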

Which results are given for `Cc1nc(Nc2ncc(C(=O)Nc3c(C)cccc3Cl)s2)cc(N2CCN(CCO)CC2)n1` [Dasatinib] + CC(=O)Nc1cccc(-n2c(=O)n(C3CC3)c(=O)c3c(Nc4ccc(I)cc4F)n(C)c(=O)c(C)c32)c1 [Trametinib] (first compound max 2 µM, 7x7, partner max 1 µM)?
Bliss excess [1]: 0.225; Bliss excess [2]: 0.0295; Bliss excess (D-392MG (Glioblastoma)): 0.0155; Bliss excess [3]: -0.0255; Bliss excess [4]: 0.0283; Bliss excess [5]: -0.147; combination Emax (HCC38 (Breast Carcinoma)): 0.285; combination Emax (HuO9 (Osteosarcoma)): 0.541; combination Emax [6]: 0.589; combination Emax [7]: 0.611; combination Emax (A172 (Glioblastoma)): 0.512; combination Emax [8]: 1; combination Emax (SK-MEL-1 (Melanoma)): 0.854; combination Emax [9]: 0.414; combination Emax (MSTO-211H (Mesothelioma)): 0.747; combination Emax [10]: 0.663; combination Emax [11]: 0.221; combination Emax [12]: 0.979; combination Emax [13]: 0.435; combination Emax [14]: 0.861

`CC1(C)CCC(CN2CCN(c3ccc(C(=O)NS(=O)(=O)c4ccc(NCC5CCOCC5)c([N+](=O)[O-])c4)c(Oc4cnc5[nH]ccc5c4)c3)CC2)=C(c2ccc(Cl)cc2)C1` [Venetoclax] + CN(C)CCCOc1ccc(-c2ccc3ncc4c(c3c2)n(C2CCOCC2)c(=O)n4C)cn1 [AZD0156] (first compound max 1 µM, 7x7, partner max 1 µM) was tested. Which Bliss excess [1] did it give?
The Bliss excess was -0.0216.

And the Bliss excess [2]?
Its Bliss excess is 0.0062.

And the Bliss excess (D-392MG (Glioblastoma))?
Its Bliss excess is -0.0225.

And the Bliss excess [3]?
Its Bliss excess is -0.013.

What about the Bliss excess [4] of the same compound?
Its Bliss excess is -0.0463.

And the Bliss excess [5]?
The Bliss excess was 0.058.

What about the “combination Emax” value (HCC38 (Breast Carcinoma)) of the same compound?
Its value is 0.193.

And the “combination Emax” value (HuO9 (Osteosarcoma))?
Its value is 0.343.

What about the “combination Emax” value [6] of the same compound?
The value was 0.209.

What about the “combination Emax” value [7] of the same compound?
Its value is 0.212.

And the “combination Emax” value (A172 (Glioblastoma))?
The value was 0.238.

What about the “combination Emax” value [8] of the same compound?
The value was 0.782.

What about the “combination Emax” value (SK-MEL-1 (Melanoma)) of the same compound?
Its value is 0.231.

And the “combination Emax” value [9]?
The value was 0.171.

And the “combination Emax” value (MSTO-211H (Mesothelioma))?
Its value is 0.123.

What about the “combination Emax” value [10] of the same compound?
Its value is 0.848.

And the “combination Emax” value [11]?
Its value is 0.138.

What about the “combination Emax” value [12] of the same compound?
The value was 0.196.

And the “combination Emax” value [13]?
Its value is 0.297.

What about the “combination Emax” value [14] of the same compound?
Its value is 0.912.

With `C[C@@H](c1ccc2nccn2c1)n1nnc2ncc(-c3cnn(C)c3)nc21` [Savolitinib] + Cc1c2c(nn1C)CSCc1cc(n(C)n1)CSc1cc(c3ccccc3c1)OCCCc1c(C(=O)O)n(C)c3c-2c(Cl)ccc13 [AZD5991] (first compound max 1 µM, 7x7, partner max 1 µM) as the compound, how does the Bliss excess [1] read?
The Bliss excess was -0.0232.

What about the Bliss excess [2] of the same compound?
Its Bliss excess is -0.0429.

And the Bliss excess (D-392MG (Glioblastoma))?
Its Bliss excess is -0.001.

What about the Bliss excess [3] of the same compound?
The Bliss excess was 0.0093.

What about the Bliss excess [4] of the same compound?
Its Bliss excess is -0.0053.

What about the Bliss excess [5] of the same compound?
Its Bliss excess is -0.0946.

And the “combination Emax” value (HCC38 (Breast Carcinoma))?
The value was 0.207.

And the “combination Emax” value (HuO9 (Osteosarcoma))?
The value was 0.739.

What about the “combination Emax” value [6] of the same compound?
The value was 0.184.

And the “combination Emax” value [7]?
Its value is 0.103.

And the “combination Emax” value (A172 (Glioblastoma))?
Its value is 0.112.

And the “combination Emax” value [8]?
The value was 0.148.

What about the “combination Emax” value (SK-MEL-1 (Melanoma)) of the same compound?
Its value is 0.0746.

And the “combination Emax” value [9]?
The value was 0.164.

And the “combination Emax” value (MSTO-211H (Mesothelioma))?
The value was 0.123.

What about the “combination Emax” value [10] of the same compound?
The value was 0.374.

What about the “combination Emax” value [11] of the same compound?
The value was 0.191.

What about the “combination Emax” value [12] of the same compound?
Its value is 0.162.

And the “combination Emax” value [13]?
The value was 0.231.

What about the “combination Emax” value [14] of the same compound?
Its value is 0.864.

For `COc1nnc2ccc(N3CCC(c4ccc(OCCN5CCN(C)C(=O)[C@H]5C)cc4)CC3)nn12` [AZD5153] + Cc1c2c(nn1C)CSCc1cc(n(C)n1)CSc1cc(c3ccccc3c1)OCCCc1c(C(=O)O)n(C)c3c-2c(Cl)ccc13 [AZD5991] (first compound max 1 µM, 7x7, partner max 1 µM), which Bliss excess [1] is on record?
Its Bliss excess is 0.015.

What about the Bliss excess [2] of the same compound?
Its Bliss excess is -0.0178.

And the Bliss excess (D-392MG (Glioblastoma))?
The Bliss excess was -0.0388.

And the Bliss excess [3]?
Its Bliss excess is -0.0031.

What about the Bliss excess [4] of the same compound?
Its Bliss excess is 0.0047.

What about the Bliss excess [5] of the same compound?
Its Bliss excess is -0.119.

And the “combination Emax” value (HCC38 (Breast Carcinoma))?
The value was 0.479.

And the “combination Emax” value (HuO9 (Osteosarcoma))?
Its value is 0.996.

And the “combination Emax” value [6]?
The value was 0.345.

And the “combination Emax” value [7]?
The value was 0.436.

What about the “combination Emax” value (A172 (Glioblastoma)) of the same compound?
The value was 0.485.

What about the “combination Emax” value [8] of the same compound?
Its value is 0.961.

And the “combination Emax” value (SK-MEL-1 (Melanoma))?
Its value is 0.679.

And the “combination Emax” value [9]?
Its value is 0.626.

What about the “combination Emax” value (MSTO-211H (Mesothelioma)) of the same compound?
Its value is 0.293.

What about the “combination Emax” value [10] of the same compound?
The value was 0.715.

And the “combination Emax” value [11]?
Its value is 0.593.

And the “combination Emax” value [12]?
The value was 0.716.

And the “combination Emax” value [13]?
Its value is 0.501.

And the “combination Emax” value [14]?
The value was 1.

For `COc1cccc(OCCCN)c1-c1cc(Nc2cnc(C#N)cn2)n[nH]1` [Prexasertib] + CCc1c2c(nc3ccc(O)cc13)-c1cc3c(c(=O)n1C2)COC(=O)[C@]3(O)CC [SN-38] (first compound max 1 µM, 7x7, partner max 0.3 µM), which Bliss excess [1] is on record?
Its Bliss excess is -0.0333.

And the Bliss excess [2]?
Its Bliss excess is 0.0163.

What about the Bliss excess (D-392MG (Glioblastoma)) of the same compound?
The Bliss excess was -0.11.

What about the Bliss excess [3] of the same compound?
Its Bliss excess is -0.0125.

And the Bliss excess [4]?
The Bliss excess was -0.0359.

What about the Bliss excess [5] of the same compound?
Its Bliss excess is -0.0258.

What about the “combination Emax” value (HCC38 (Breast Carcinoma)) of the same compound?
The value was 0.753.

What about the “combination Emax” value (HuO9 (Osteosarcoma)) of the same compound?
The value was 0.995.

What about the “combination Emax” value [6] of the same compound?
The value was 0.752.

And the “combination Emax” value [7]?
Its value is 0.79.

And the “combination Emax” value (A172 (Glioblastoma))?
Its value is 0.751.

And the “combination Emax” value [8]?
The value was 0.94.

And the “combination Emax” value (SK-MEL-1 (Melanoma))?
The value was 0.623.

And the “combination Emax” value [9]?
Its value is 0.95.

What about the “combination Emax” value (MSTO-211H (Mesothelioma)) of the same compound?
Its value is 0.808.

What about the “combination Emax” value [10] of the same compound?
Its value is 0.968.

What about the “combination Emax” value [11] of the same compound?
Its value is 0.762.

What about the “combination Emax” value [12] of the same compound?
Its value is 0.901.

And the “combination Emax” value [13]?
Its value is 0.845.

What about the “combination Emax” value [14] of the same compound?
Its value is 1.

Which Bliss excess [1] does the source give for `CCN(CCO)CCCOc1ccc2c(Nc3cc(CC(=O)Nc4cccc(F)c4)[nH]n3)ncnc2c1` [AZD2811] + C[C@@H]1COCCN1C2=NC(=NC(=C2)C3(CC3)[S@](=N)(=O)C)C4=C5C=CNC5=NC=C4 [AZD6738] (first compound max 1 µM, 7x7, partner max 10 µM) here?
The Bliss excess was -0.0228.

What about the Bliss excess [2] of the same compound?
Its Bliss excess is -0.0434.

And the Bliss excess (D-392MG (Glioblastoma))?
The Bliss excess was -0.0537.

And the Bliss excess [3]?
Its Bliss excess is 0.0317.

What about the Bliss excess [4] of the same compound?
Its Bliss excess is 0.0179.

What about the Bliss excess [5] of the same compound?
Its Bliss excess is -0.0451.

What about the “combination Emax” value (HCC38 (Breast Carcinoma)) of the same compound?
The value was 0.568.

And the “combination Emax” value (HuO9 (Osteosarcoma))?
The value was 0.815.

And the “combination Emax” value [6]?
Its value is 0.216.

What about the “combination Emax” value [7] of the same compound?
The value was 0.266.

And the “combination Emax” value (A172 (Glioblastoma))?
The value was 0.655.

What about the “combination Emax” value [8] of the same compound?
The value was 0.912.

What about the “combination Emax” value (SK-MEL-1 (Melanoma)) of the same compound?
Its value is 0.331.

And the “combination Emax” value [9]?
Its value is 0.76.

What about the “combination Emax” value (MSTO-211H (Mesothelioma)) of the same compound?
The value was 0.727.

And the “combination Emax” value [10]?
The value was 0.784.

What about the “combination Emax” value [11] of the same compound?
Its value is 0.654.

What about the “combination Emax” value [12] of the same compound?
Its value is 0.562.

What about the “combination Emax” value [13] of the same compound?
Its value is 0.637.

And the “combination Emax” value [14]?
The value was 0.922.
